Test [1] has as its system National Cancer Institute's P388 lymphocytic leukemia cell line. Conditions: cited from earlier work.
The test system of test [2] is collagen induced arthritis in DBA-1 mice. The experiment in a line: Collagen induced arthritis, prophylactic model (mean arthritic score). The test is classed as in vivo. Conditions: 5 mg/kg/day intraperitoneally, day 26 to day 35 post immunization.
For test [3] the test system is unchanged. The experiment in a line: Collagen induced arthritis, therapeutic model (mean arthritic score, histopathology). It is filed as in vivo. As to conditions: 5 mg/kg/day intraperitoneally, 21 days from day 48, necropsy day 71, vs vehicle.

Dolastatin-15: the “inhibition of cell growth” value in test [1] is “markedly inhibits the growth”.

As to `C[C@@H]1C[C@H]2[C@@H]3CCC4=CC(=O)C=C[C@]4(C)[C@@]3(F)[C@@H](O)C[C@]2(C)[C@@]1(O)C(=O)CO` [dexamethasone], in test [2], the “signs of rheumatoid arthritis after end of treatment (mean arthritic score)” value was “exhibited signs of rheumatoid arthritis immediately following the end of treatment”. Besides, in test [3], the “cartilage involvement (cartilage damage, histopathology, scale 0-3)” value was “significantly suppressed” and the “synovitis (synovial inflammation, histopathology, scale 0-3)” value was “significantly suppressed”.

Values taken from patent publication US6015790A, “Methods and compositions for treating rheumatoid arthritis” (BASF Aktiengesellschaft, priority 1997, dated 2000).
